# Assays:
# eEF2K [1] = target: T1, eEF2K (Homo sapiens, UniProt O00418); assay: Western blot of p-EF2 (Thr56) for eEF2K inhibition in MDA-MB-231 cells; format: cell-based; details: for eEF2K inhibition potential: MDA-MB-231 (TNBC) cells, 2.5 to 20 micromolar
# T1 sequence (O00418 1-725): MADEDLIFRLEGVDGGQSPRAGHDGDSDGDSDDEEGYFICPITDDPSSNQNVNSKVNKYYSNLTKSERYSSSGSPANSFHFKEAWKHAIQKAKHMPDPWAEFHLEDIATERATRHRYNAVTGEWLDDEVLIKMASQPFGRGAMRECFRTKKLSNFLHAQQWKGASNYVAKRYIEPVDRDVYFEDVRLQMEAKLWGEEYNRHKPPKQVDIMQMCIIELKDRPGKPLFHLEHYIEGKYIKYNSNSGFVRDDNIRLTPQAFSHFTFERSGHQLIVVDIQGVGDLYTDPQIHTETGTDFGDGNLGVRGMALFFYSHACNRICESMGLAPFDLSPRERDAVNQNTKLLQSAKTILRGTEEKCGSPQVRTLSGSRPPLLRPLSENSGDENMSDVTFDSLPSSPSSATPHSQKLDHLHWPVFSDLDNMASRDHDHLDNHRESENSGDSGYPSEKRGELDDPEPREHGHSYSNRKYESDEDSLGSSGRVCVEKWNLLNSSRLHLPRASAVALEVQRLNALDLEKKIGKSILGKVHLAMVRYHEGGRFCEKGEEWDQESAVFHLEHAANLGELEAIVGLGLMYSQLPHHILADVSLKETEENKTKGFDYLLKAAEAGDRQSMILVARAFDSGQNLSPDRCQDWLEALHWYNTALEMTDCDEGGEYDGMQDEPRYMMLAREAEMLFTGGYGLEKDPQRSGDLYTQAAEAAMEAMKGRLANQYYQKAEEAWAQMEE
# Experimental: MeOH: distilled water by volume (%) (70:30) was used as the mobile phase for HPLC analysis for the inventive compound and the flow rate was set to 1 mL min^-1. Triple negative breast cancer (TNBC) cell lines (ER-, PR- and HER2-) MDA-MB-231 cells were purchased from the American Type Culture Collection (ATCC) (Manassas, VA, USA). MDA-MB-231 cells were cultured in Dulbecco's modified Eagle's medium (DMEM)/F12 supplemented with 10% FBS (Fetal Bovine Serum) and 100 U mL^-1 penicillin and streptomycin. Specific antibodies (p-EF2 (Thr56) (2331S), eEF2 (2332S), eEF2K (3692S) and GAPDH (5174S)) were purchased from Cell Signaling Technology (CST).
# Western blot analysis was carried out according to previously reported studies to evaluate the eEF2K inhibition activity for the synthesized compounds. The synthesized compound was applied to MDA-MB-231 cells in the range of various concentrations from 2.5 to 20 micromolar for 2 h treatment. The expression levels of p-EF2 (Thr56) inhibition and eEF2K activity were determined by using related antibodies such as p-EF2 (Thr56), eEF2 and eEF2K. Glyceraldehyde 3-phosphate dehydrogenase (GAPDH) was used as a loading control.
# To determine the effects of the synthesized compounds in inhibiting eEF2K activity in TNBC, MDA-MB-231 cells, we performed western blot analysis at concentrations ranging from 2.5 micromolar to 20 micromolar in a dose-dependent manner. eEF2K inhibition was detected by decreased phosphorylation levels of EF2 (p-EF2-Thr-56), a direct downstream substrate of the enzyme.
# eEF2K [2] = target: T1, eEF2K; details: literature, cited from earlier work
# other protein kinases = details: literature; cited from earlier work
# cancer cells = details: literature; very high doses; cited from earlier work
eEF2K inhibition potential (eEF2K [1]; western blot),SMILES,eEF2K inhibition (in words) (eEF2K [2]),Activity against other kinases (specificity) (other protein kinases),other results
did not show any inhibition potential,"CCc1cccc2c3c([nH]c12)C(CC)(CC(=O)O)OCC3 (racemic) [Etodolac, (R,S)-2-[1,8-diethyl-1,3,4-tetrahydropyrano[3,4-b]indol-1-yl] acetic acid]",,,
high inhibition potential,"CCc1cccc2c3c([nH]c12)C(CC)(CC(=O)NCCN1CCCCC1)OCC3 (stereo not shown) [Inventive compound, 2-(1,8-Diethyl-1,3,4,9-tetrahydropyrano[3,4-b]indol-1-yl)-N-(2-(piperidin-1-yl)ethyl)acetamide]",,,"phospho-eEF2 (Thr56) inhibition (eEF2K [1]; MDA-MB-231 cells, 2.5 and 5 micromolar, 2 h treatment): highest phospho-eEF2 (Thr56) inhibition; eEF2K inhibition (reduced levels of p-EF2) (eEF2K [1]; MDA-MB-231 cells, 2.5 micromolar, compared to etodolac (EC), western blot): marked inhibition of eEF2K"
,Cc1cc(C=C2C(=O)C=CC2=O)cc(C)c1O [TX1918],did not show significant eEF2K inhibition,inhibitory activity against five different kinases,Concentration reported to inhibit eEF2K (eEF2K [2]; concentrations as high as): 10 µM
,CCCCCCCCCCCCCCCCn1cc[n+](Cc2ccccc2)c1C.[I-] [NH125],does not inhibit EF2K but rather increases eEF2 phosphorylation,,
,CCn1c(=O)c2cc(C(N)=O)c(N)nc2n(C2CC2)c1=O [A484954],,,Dose showing inhibition effect in cancer cells (cancer cells): 75 µM
,CC(=O)c1c(O)c(C)c(O)c(Cc2c(O)c3c(c(C(=O)/C=C/c4ccccc4)c2O)OC(C)(C)C=C3)c1O [rottlerin],,inhibits various other protein kinases at concentrations lower than those required for inhibition of eEF2K,

# Source: patent US20260022126A1, “2-(L,8-DIETHYL-1,3,4,9-TETRAHYDROPYRANO[3,4-B]INDOL-1-YL)-N-(2-(PIPERIDIN-1 YL)ETHYL)ACETAMIDE ETODOLAC DERIVATIVE AS A EUKARYOTIC ELONGATION FACTOR 2 KINASE (EEF2K) INHIBITOR FOR TARGETED CANCER THERAPY” (BAHCESEHIR UNIVERSITESI, priority 2023, published 2026)
